We go through 99 substances from patent publication US20220105170A1 (priority 2019, published 2022).

“And” between values parts separate entries of the source, which are not always exact repeats. Identical values can stand only once.

The assay relates to peripheral blood lymphocytes collected from swine exposed to ASFV. Format: cell-based.
724 (HSDMYSVIFNI) [compound 724]: the “Number of Spots” value amounted to 15.
As for 386 (RTENYNLVCEY) [compound 386], the “Number of Spots” value was 110.
The same measure for 2181 (YPHIFYRPLY) [compound 2181]: 12; for 921 (SVLLRDSGYY) [compound 921]: 14; for 523 (MGFSKPFMR) [compound 523]: 12.
The same measure for 1436 (NKANKAFYI) [compound 1436]: 13; for 839 (ASSSMHSGM) [compound 839]: 16; for 1188 (VSNILHSVF) [compound 1188]: 13.
The figure for 283 (YTHLNTWRL) [compound 283] is 18; for 2222 (ISFSEMLTRYW) [compound 2222] it is 12; for 1107 (RTIPVAWDRF) [compound 1107] it is 18.
Consider 369 (KHTLQWLGLY) [compound 369], for which the “Number of Spots” value is recorded as 16.
The figure for 1150 (KSQDTLHRF) [compound 1150] is 12; for 1767 (LLDTNTNFY) [compound 1767] it is 13 and 21; for 1491 (MIADAINQEF) [compound 1491] it is 13.
Take 1024 (SQKLVQLFY) [compound 1024]: the “Number of Spots” value stood at 20.
The figure for 1753 (YFDTFANAM) [compound 1753] is 13; for 467 (QAYALEYAM) [compound 467] it is 17.
The same measure for 1510 (FTDNAPAGHYY) [compound 1510]: 15; for 1348 (LMSALKWPIEY) [compound 1348]: 12.
The figure for 954 (NNFTATCII) [compound 954] is 15; for 607 (NINCFNYCI) [compound 607] it is 12.
Regarding 1875 (ISPRISYQF) [compound 1875], the “Number of Spots” value was found to be 12.
The figure for 1873 (KLYTAALGVY) [compound 1873] is 12.
Consider 1080 (FRDHFIAL) [compound 1080], for which the “Number of Spots” value turned out to be 16.
The figure for 1750 (SMSYFDGKTEY) [compound 1750] is 17.
The figure for 478 (STYTEIVKY) [compound 478] is 33 and 19; for 1841 (SMFKHFDNM) [compound 1841] it is 17; for 1288 (HFNAHFKPY) [compound 1288] it is 16.
For 2137 (KNYFRFFKKL) [compound 2137], the “Number of Spots” value is reported as 12.
The figure for 1184 (LSDLRNFSF) [compound 1184] is 16.
Take 2075 (KSCYPLVFI) [compound 2075]: the “Number of Spots” value turned out to be 12.
The figure for 872 (RVDMNRFFQF) [compound 872] is 15 and 18; for 625 (SVFMWICIY) [compound 625] it is 15.
With 1033 (SVSPVFTSGY) [compound 1033], the “Number of Spots” value is 16.
The figure for 1517 (ATKKALIHF) [compound 1517] is 13.
The same measure for 1693 (EVYAPYMHY) [compound 1693]: 12; for 1864 (SMPMSMIGPY) [compound 1864]: 13.
The figure for 960 (ETTLINCTYL) [compound 960] is 13.
278 (MRIEIFWEL) [compound 278]: the “Number of Spots” value was 15.
The figure for 1484 (GTSYLRMAY) [compound 1484] is 14.
The same measure for 1571 (KTVQHIEQY) [compound 1571]: 14.
Take 725 (SDMYSVIFNI) [compound 725]: the “Number of Spots” value was found to be 15.
The figure for 1090 (ALFPQYISYY) [compound 1090] is 106.
The figure for 1503 (KTDPNFKNL) [compound 1503] is 13; for 1651 (RFSRPGNNY) [compound 1651] it is 17; for 1580 (SNMKQFCKI) [compound 1580] it is 12.
The figure for 926 (KQKHVSLLY) [compound 926] is 16.
As to 896 (SGLQSFYLY) [compound 896], the “Number of Spots” value is 18 and 26.
The same measure for 1519 (FGMMNQTNY) [compound 1519]: 13; for 1120 (SLPDVSTLPY) [compound 1120]: 13; for 2139 (NYFRFFKKLL) [compound 2139]: 19.
As for 1437 (KANKAFYINH) [compound 1437], the “Number of Spots” value was 12 and 16.
The same measure for 2140 (YFRFFKKLL) [compound 2140]: 16; for 608 (INCFNYCILY) [compound 608]: 13; for 1212 (TFLLKKRMEL) [compound 1212]: 19.
For 2265 (RYRHFKDWRLI) [compound 2265], the “Number of Spots” value is recorded as 13.
The figure for 1049 (SLEFNTFYAF) [compound 1049] is 15.
The figure for 906 (WVGYNNVCYY) [compound 906] is 12.
The same measure for 280 (SLSTLLLKY) [compound 280]: 12; for 1278 (NYYPYYIY) [compound 1278]: 16; for 1952 (LSKNIAAEY) [compound 1952]: 17.
As to 2175 (RLYPHIFYR) [compound 2175], the “Number of Spots” value turned out to be 16.
The figure for 1528 (KTYTLLTKPY) [compound 1528] is 13; for 1823 (YTKFFNCPF) [compound 1823] it is 25.
The same measure for 835 (AMFFTRSEW) [compound 835]: 26; for 865 (RRVHASYPGY) [compound 865]: 15; for 1459 (KITSVTEFY) [compound 1459]: 19.
The figure for 1685 (NINRLMPYF) [compound 1685] is 12; for 1472 (KVDLPYHLM) [compound 1472] it is 16; for 309 (FTKAIHYFYKR) [compound 309] it is 12.
As for 1204 (MQDYSLTF) [compound 1204], the “Number of Spots” value is listed as 17.
Consider 585 (VVDDVPSIDY) [compound 585], for which the “Number of Spots” value amounted to 12.
The figure for 2141 (RFFKKLLTHF) [compound 2141] is 12; for 1207 (DYSLTFLLKK) [compound 1207] it is 17; for 447 (NIIHTIYQSY) [compound 447] it is 331.
The figure for 1413 (ISSMSVSTFW) [compound 1413] is 12; for 1736 (VTQRNQNYF) [compound 1736] it is 13; for 2241 (YNLTEAIQYF) [compound 2241] it is 14.
The figure for 1544 (GSLYPTQFDY) [compound 1544] is 14; for 1020 (QTNCQLYFF) [compound 1020] it is 18.
For 757 (CFMMQCKSIY) [compound 757], the “Number of Spots” value stood at 16.
The figure for 1991 (KQELSRLIY) [compound 1991] is 29; for 2134 (KNYFRFFKK) [compound 2134] it is 16.
The figure for 1345 (RVRFSLIRV) [compound 1345] is 16.
Consider 1840 (SLANHTVKYY) [compound 1840], for which the “Number of Spots” value stood at 14.
The same measure for 1499 (AVNLLRQTF) [compound 1499]: 14; for 2037 (MCGKRNCPLY) [compound 2037]: 12.
The figure for 1828 (RSQTECGPY) [compound 1828] is 14; for 1511 (RSLSNFQAL) [compound 1511] it is 17; for 458 (IVSEYINYLF) [compound 458] it is 16.
For 703 (STVITTAYNF) [compound 703], the “Number of Spots” value turned out to be 13.
The same measure for 1295 (SQMGAHGQL) [compound 1295]: 17; for 1830 (SVMALAKMY) [compound 1830]: 12.
The same measure for 1468 (ITYLNNMGY) [compound 1468]: 13; for 2211 (ASFKEGLSL) [compound 2211]: 12.
The same measure for 2251 (AIQYFYQRY) [compound 2251]: 12; for 2194 (RSCDYAPGFY) [compound 2194]: 12.
Regarding 963 (TLINCTYLTL) [compound 963], the “Number of Spots” value came to 19.
